From patent US5147652A, “Autobiotics and their use in eliminating nonself cells in vivo” (priority 1990, dated 1992)

Columns and labels:
Candida albicans [1] = experiment: Effect on proliferation of Candida albicans, disk on agar surface (A); type: cell-based
Procedure: Stock solutions of the following test compounds were dissolved in physiological saline. However DOV was dissolved in water.
C. albicans isolated from clinical specimens were density grown in SubbaRow's broth at 35 C. A loopful of yeast suspension was evenly spread on the surface of Muller-Hilton agar plates (7cm diameter) with a sterile cotton applicator and incubated for 12 hours. The test compounds were placed on the surface of the sensidisks (Whatmann No. 17 paper, 6mm diameter) in a volume of 5, 10, 20, and 50 μliter of stock solutions and made up a final volume of 50 μliter with saline. The plates then were placed and kept at 37 C for 24 hours (*) and 48 hours (**) when the diameters of the inhibitory rings were recorded. Photographs were also taken of plates.

Candida albicans [2] = conditions: cited from earlier work
[3] = tested on: blood coagulation (citrated human blood plasma); experiment: Blood coagulation (i), ketoaldehyde kept 1-2 seconds before plasma added; type: biochemical; conditions: for d % (clotting activity) / coagulation time / clot: 1-2 seconds contact; for d % (clotting activity): control 22; for coagulation time: control 24; for clot: control hard; for anti-coagulant effectiveness: summary of Example 9
Procedure: (§1) 200 microliter thromboplastin (Ortho) was mixed with 10 microliter ketoaldehyde (KA) stock solution. Then 100 microliter citrated human blood plasma was added and the clot formation time (in seconds) was measured on a Fibrionometer. The effect of the ketoaldehyde on coagulation time was evaluated by comparing the clotting time of the KA treated plasma with the untreated control. The result (d%) was read from a special chart expressing the clotting activity.
(§2) All measurements were run in triplicates. The assay was run at 37 C (waterbath) in special tubes and all solutions were prewarmed.
(i) The plasminogen and ketoaldehyde were kept for
1-2 seconds before the blood plasma was added.

C. albicans = experiment: Inhibition of C. albicans, yeast mixed in agar (B); type: cell-based; conditions: 30 μl test, 24 hrs incubation; mean of twenty assays
Procedure: Stock cultured C. albicans is used. The yeast isolated from clinical specimens was stock cultured (subcultured) on semisolid trypsoy agar plates. […] Thus, from the subculture(s), transfers were made every 48 hrs into SRB to keep the experimental strain available for assays. From the 24-48 hrs SRB cultures a loopful of turbid solutions was transferred and spread on either (a) trypsoy agar plates or (b) EBM agar plates which were fortified with horse and calf serum and incubated at 36 C for 24-48 hrs. […] Plate (a) was selected for growth inhibition assay(s) with ketoaldehydes.
One milliliter of SRB culture (24-48 hrs growth) was mixed with 10 ml trypsoy agar, warmed to 38 C and rapidly poured into sterile Petri dishes (7cm), spread evenly and allowed to solidify. The selected test compounds (in 30 μl total volume, as above) were placed in sensidisks (6mm dia, Whatman #17) on the infected agar surface. The plates were incubated for 24 hrs at 37 C. The extent of inhibition, clear zones around the sensi disks, were measured and recorded. In some cases contact photorecords were also made with the plates. (The dark zones on the photos are the inhibition (no growth) areas of C. albicans.
These assays were aimed at finding the variations of inhibition due to (i) the variable amount of yeast in (ii) a three dimensional area of the plates. Each result is the statistical mean of twenty assays on different batches of C. albicans.

[4] = tested on: blood coagulation (normal plasma); experiment: Blood coagulation (ii)(b), normal plasma; type: biochemical, human
Procedure: as §1, §2
(ii) The plasminogen and KA were incubated for
varying time before the blood plasma was added.
(b) with normal plasma: clotting time = 11. 7 sec

Penicillum notatum [5] = experiment: Inhibition of proliferation of molds, disk assay; type: cell-based; conditions: 8 days; for persistence of inhibition rings: highest concentration; for spore formation / mycelium development in second ring: penicillin plate
Penicillum notatum [6] = experiment: Inhibition of proliferation of molds, disk assay; type: cell-based; parameters: unit not given here; conditions: 40 hrs
Procedure: (§3) (1) Stock solutions in 26% 2 popanediol:
(§4) (3) Assay: The microorganisms were grown in Saburand's dextrose agar (Scott) at 35 C for stock cultures. For assay the spores were plated on Mueller-Hilton agar plates (7cm dia). The test compounds were applied to the plates on sensi disks (6 mm dia, Whatmann #17 paper) in volumes of 10, 20, 30, 40 microliter made up to 40 plating volume of microliter with the solvent. The plates were incubated at room temperature and in the dark for 40 hrs. The diameter of the inhibition ring around the sensi disks were measured.

Aspergillus niger = experiment: Inhibition of proliferation of molds, disk assay; type: cell-based; parameters: unit not given here; conditions: 40 hrs
Procedure: as §3, §4

[7] = 10x diluted, incubation time 10 seconds
[8] = 20x diluted, incubation time 30 seconds

| Structure (SMILES) | inhibition diameters (Candida albicans [1]; 10 μliter, 24 hours (*)) [mm] | inhibition diameters (Candida albicans [1]; 20 μliter, 24 hours (*)) [mm] | inhibition diameters (Candida albicans [1]; 50 μliter, 24 hours (*)) [mm] | d % (clotting activity) [3] | coagulation time [3] [s] | clot [3] | inhibition diameters (Candida albicans [1]; 20 μliter, 48 hours (**)) [mm] | inhibition diameters (Candida albicans [1]; 50 μliter, 48 hours (**)) [mm] | inhibition diameters (C. albicans) [mm] | anti-coagulant effectiveness [3] | persistence of inhibition rings (Penicillum notatum [5]) | spore formation / mycelium development in second ring (Penicillum notatum [5]) | clotting time [4, 7] [s] | clotting time ([4]; incubation time 15 seconds) [s] | diameter of inhibition ring (Penicillum notatum [6]; 10 microliter) | diameter of inhibition ring (Penicillum notatum [6]; 20 microliter) | diameter of inhibition ring (Penicillum notatum [6]; 30 microliter) | diameter of inhibition ring (Penicillum notatum [6]; 40 microliter) | diameter of inhibition ring (Aspergillus niger; 10 microliter) | diameter of inhibition ring (Aspergillus niger; 20 microliter) | other results |
| --- | --- | --- | --- | --- | --- | --- | --- | --- | --- | --- | --- | --- | --- | --- | --- | --- | --- | --- | --- | --- | --- |
| Nc1nc(=O)[nH]cc1F [5FC, 5 fluorocytosine, reference compound] | 45 | 50 | 55 |  |  |  |  |  |  |  |  |  |  |  |  |  |  |  |  |  | inhibition diameters (Candida albicans [1]; 5 μliter, 24 hours (*)): 33 mm; duration of action against Candida (Candida albicans [2]): shortlived action; toxicity to the host (Candida albicans [2]): low toxicity to the host |
| C[C@@H]1[C@H](O)[C@@H](C)/C=C/C=C/C=C/C=C/C=C/C=C/C=C/[C@H](O[C@@H]2O[C@H](C)[C@@H](O)[C@H](N)[C@@H]2O)C[C@@H]2O[C@](O)(C[C@@H](O)C[C@@H](O)[C@H](O)CC[C@@H](O)C[C@@H](O)CC(=O)O[C@H]1C)C[C@H](O)[C@H]2C(=O)O [AMP-B, amphotericin-B, reference compound] |  | 2 | 5 |  |  |  |  |  |  |  |  |  |  |  |  |  |  |  |  |  |  |
| CC(=O)CC(=O)C=O [AcMG, 3-acetylmethylglyoxal] | 18 | 31 | 34 | 28% | 21.5 | hard | 24 | 30 | 25.3 |  |  |  |  |  |  |  |  |  |  |  | inhibition diameters (Candida albicans [1]; 10 μliter, 48 hours (**)): 11 mm; clotting time ([4]; incubation time 120 seconds): 13.9 s; d% ([4]; incubation time 120 seconds): 78% |
| O=CC(=O)CCl [CMG, chloromethylglyoxal] | 7 | 21 | 33 | infinite | > 200 | no | 10 | 31 | 26.6 | most effective anti-coagulants | remained unchanged | spore formation in this area was inhibited while mycelium development was not | 13.5 | 19.4 | 8 | 10 | 12 | 14 | 8 | 11 | d% [4, 7]: 37%; d% ([4]; incubation time 15 seconds): 33%; clotting time ([4]; incubation time 100 seconds): > 178.0 s; diameter of inhibition ring (Aspergillus niger; 30 microliter): 17; diameter of inhibition ring (Aspergillus niger; 40 microliter): 22 |
| O=CC(=O)C(Cl)Cl [DCMG, 3,3-dichloromethylglyoxal] | 8 | 20 | 32 | infinite | > 200 | no | 17 | 29 | 23.0 | most effective anti-coagulants | remained unchanged | spore formation in this area was inhibited while mycelium development was not | 12.9 | > 170.0 | 8 | 10 | 13 | 16 | 10 | 12 | clotting time [4, 8]: 20.0 s; d% [4, 8]: 14.7%; diameter of inhibition ring (Aspergillus niger; 30 microliter): 14; diameter of inhibition ring (Aspergillus niger; 40 microliter): 15 |
